Measurements published in the supplement of paper PMC11208160.

Experiment: recombinant UMI read abundance after kanamycin selection (control-corrected) (log10(CPM+1)); higher = more efficient recombination; extreme values may be limits of the assay; sequences stand for … in AGTGCAGAGAAAATCGGCCAGTTTTCTCTGCCTGCAGTCCGCATGCCGTGGGACCCCTTGGGTTCTAACCTGTTGCCTAGATTTATGCAGCGGACTGCCTTTCTCCCAAAGTGATAAACCGG…AGGTTGGTTTCACT; site = the 11-nt donor
Summary of the method: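 In a pooled Escherichia coli screen for the IS621 bridge recombinase, donor and donor-binding-loop pairs were each placed with a 12-nt UMI on a plasmid bearing a promoterless kanamycin gene. This library was co-electroporated with a target plasmid encoding a fixed target and T7-inducible recombinase, and cells were plated either on IPTG (0.07 mM) plus kanamycin or without selection, in two replicates each. Recombinant UMIs were PCR-amplified across the donor–target junction and sequenced, and counts were converted to CPM, averaged over replicates, scaled by control-derived factors and reported as log10(CPM+1).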
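Further: IS621 bridge recombinase in Escherichia coli cells against a fixed T5 target plasmid.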

Sequence	recombinant UMI read abundance (log10)
CGGGAGCCATGGACCGGTTTTCCCGGTAATCCGTATTTGAT (site CGGGATCCTAT)	0.0423
CGGGAGTCATGGACCGGTTTTCCCGGTAATCCGTATTTGCT (site CGGGAGTCTAG)	2.6
CGGGAGTCATGGACCGGTTTTCCCGGTAATCCGTATTTGCT (site CGGGAGTCTCG)	2.06
CGGGAGTCATGGACCGGTTTTCCCGGTAATCCGTATTTGCT (site CGGGAGTCTGG)	2.26
CGGGAGTCATGGACCGGTTTTCCCGGTAATCCGTATTTGCT (site CGGGAGTCTTG)	1.47
CGGGAGTCATGGACCGGTTTTCCCGGTAATCCGTATTTGTC (site CGGGAGTCTGA)	3.19
CGGGAGTCATGGACCGGTTTTCCCGGTAATCCGTATTTGTC (site CGGGAGTCTGC)	1.37
CGGGAGTCATGGACCGGTTTTCCCGGTAATCCGTATTTGTC (site CGGGAGTCTGG)	2.03
CGGGAGTCATGGACCGGTTTTCCCGGTAATCCGTATTTGTC (site CGGGAGTCTGT)	1.9
CGGGCAGCATGGACCGGTTTTCCCGGTAATCCGTATTTGTC (site CGGGCAGCTGA)	1.93
CGGGCCTCATGGACCGGTTTTCCCGGTAATCCGTATTTGTT (site CGGGCCTCTAA)	2.54
CGGGGGTCATGGACCGGTTTTCCCGGTAATCCGTATTTGCC (site CGGGAGTCTGG)	0.865
CGGGGGTCATGGACCGGTTTTCCCGGTAATCCGTATTTGCC (site CGGGCGTCTGG)	1.7
CGGGGGTCATGGACCGGTTTTCCCGGTAATCCGTATTTGCC (site CGGGGGTCTGG)	1.86
CGGGGGTCATGGACCGGTTTTCCCGGTAATCCGTATTTGCC (site CGGGTGTCTGG)	0.6
CGGGTACCATGGACCGGTTTTCCCGGTAATCCGTATTTGAT (site CGGGAACCTAT)	0
CGGGTACCATGGACCGGTTTTCCCGGTAATCCGTATTTGAT (site CGGGCACCTAT)	0
CGGGTACCATGGACCGGTTTTCCCGGTAATCCGTATTTGAT (site CGGGGACCTAT)	0
CGGGTACCATGGACCGGTTTTCCCGGTAATCCGTATTTGAT (site CGGGTACCTAT)	0.00441

Sequence	recombinant UMI read abundance (log10)
CGGGTGTCATGGACCGGTTTTCCCGGTAATCCGTATTTGTT (site CGGGTGTCTAA)	3.07
CGGGTTGCATGGACCGGTTTTCCCGGTAATCCGTATTTGAG (site CGGGTTGCTCT)	1.79
CGGTACTCATGGACCGGTTTTCCCGGTAATCCGTATTTGGC (site CGGTACTCTGC)	3.19
CGGTAGCCATGGACCGGTTTTCCCGGTAATCCGTATTTGTT (site CGGAATCCTAA)	0.00596
CGGTAGCCATGGACCGGTTTTCCCGGTAATCCGTATTTGTT (site CGGTAGCCTAA)	0.237
CGGTCATCATGGACCGGTTTTCCCGGTAATCCGTATTTGCT (site CGATCATCTAG)	1.07
CGGTCATCATGGACCGGTTTTCCCGGTAATCCGTATTTGCT (site CGCTCATCTAG)	0
CGGTCATCATGGACCGGTTTTCCCGGTAATCCGTATTTGCT (site CGGACATCTAG)	0
CGGTCATCATGGACCGGTTTTCCCGGTAATCCGTATTTGCT (site CGGCCATCTAG)	2.29
CGGTCATCATGGACCGGTTTTCCCGGTAATCCGTATTTGCT (site CGGGCATCTAG)	0
CGGTCATCATGGACCGGTTTTCCCGGTAATCCGTATTTGCT (site CGGTCATCTAG)	1.7
CGGTCATCATGGACCGGTTTTCCCGGTAATCCGTATTTGCT (site CGTTCATCTAG)	0.224
CGGTCCGCATGGACCGGTTTTCCCGGTAATCCGTATTTGCG (site CGGTCCGCTCG)	0.155
CGGTCTTCATGGACCGGTTTTCCCGGTAATCCGTATTTGCT (site CGATCATCTAG)	0
CGGTCTTCATGGACCGGTTTTCCCGGTAATCCGTATTTGCT (site CGGTCTTCTAG)	1.49
CGGTGAGCATGGACCGGTTTTCCCGGTAATCCGTATTTGGA (site CGGTGAGCTTC)	1.56
CGGTGGACATGGACCGGTTTTCCCGGTAATCCGTATTTGGG (site CGGTGGACTCC)	0.024
CGTAACCCATGGACCGGTTTTCCCGGTAATCCGTATTTGGC (site CGTAACCCTGC)	0.629
CGTAACTCATGGACCGGTTTTCCCGGTAATCCGTATTTGTA (site CGTAACTCTTA)	2.2

Sequence	recombinant UMI read abundance (log10)
CGTAAGACATGGACCGGTTTTCCCGGTAATCCGTATTTGCA (site AGGAAGACTTG)	0
CGTAAGACATGGACCGGTTTTCCCGGTAATCCGTATTTGCA (site CGTAAGACTTG)	2.68
CGTAATACATGGACCGGTTTTCCCGGTAATCCGTATTTGGC (site CATAATACTGC)	0
CGTAATACATGGACCGGTTTTCCCGGTAATCCGTATTTGGC (site CCTAATACTGC)	0
CGTAATACATGGACCGGTTTTCCCGGTAATCCGTATTTGGC (site CGTAATACTGC)	1.22
CGTAATACATGGACCGGTTTTCCCGGTAATCCGTATTTGGC (site CTTAATACTGC)	0
CGTAATACATGGACCGGTTTTCCCGGTAATCCGTATTTGTT (site CGGAATCCTAA)	0
CGTAATACATGGACCGGTTTTCCCGGTAATCCGTATTTGTT (site CGTAATACTAA)	0.809
CGTATAACATGGACCGGTTTTCCCGGTAATCCGTATTTGAT (site CGTATAACTAT)	0.94
CGTCATGCATGGACCGGTTTTCCCGGTAATCCGTATTTGAC (site CGTCATGCTGT)	1.2
CGTCTTTCATGGACCGGTTTTCCCGGTAATCCGTATTTGCA (site CGTCTTTCTTG)	0
CGTGAAACATGGACCGGTTTTCCCGGTAATCCGTATTTGTT (site CGTGAAACTAA)	1.61
CGTGAAACATGGACCGGTTTTCCCGGTAATCCGTATTTGTT (site CGTGCAACTAA)	0
CGTGAAACATGGACCGGTTTTCCCGGTAATCCGTATTTGTT (site CGTGGAACTAA)	0
CGTGAAACATGGACCGGTTTTCCCGGTAATCCGTATTTGTT (site CGTGTAACTAA)	0.0209
CGTGAGGCATGGACCGGTTTTCCCGGTAATCCGTATTTGCC (site CGTGAGGCTGG)	0.525
CGTGCCCCATGGACCGGTTTTCCCGGTAATCCGTATTTGGC (site CGTGCCCCTGC)	0
CGTGGAACATGGACCGGTTTTCCCGGTAATCCGTATTTGCG (site CGTGGAACTCG)	2.05
CGTGGAGCATGGACCGGTTTTCCCGGTAATCCGTATTTGTT (site CGTGGAACTAA)	1.66
